Entries after “also recorded” stand apart in the source; their conditions may differ.
How the values were obtained:
[1] = system: cerebral ischemia reperfusion model of middle cerebral artery obstruction (MCAO); test: Cerebral ischemia reperfusion model of middle cerebral artery obstruction (MCAO); type: in vivo; details: SD rats, 3 μg/kg once via vena caudalis; for Cerebral infarction area (%) / Score of neurologic deficit symptom: 24 h after reperfusion; for Cerebral infarction area (%): TTC staining; for Score of neurologic deficit symptom: improved Bederson 5-point system
Description: A cerebral ischemia reperfusion model of middle cerebral artery obstruction (MCAO) was established by thread embolizing the internal carotid artery of SD rats (purchased from Shanghai Sippr bk Laboratory Animal Co. LTD.) A positive control 1 group (urinary kallikrein, Guangdong Tianpu Biochemical Pharmaceutical Co., LTD.), a positive control 2 group (tPA, Shanghai Boehringer Ingelheim Pharmaceuticals Co., LTD), a model control group (PBS), a sham group, a kallikrein group (from Changzhou Qianhong Biochemical Pharmaceutical Co., LTD.), a conjugate 1 group, a conjugate 2 group, a conjugate 3 group, and a conjugate 4 group were arranged respectively. Administration by injection through vena caudalis was performed once at 3 μg/kg (calculated according to the protein amount) immediately after the cerebral ischemia reperfusion. Neurologic deficit symptoms were observed 24 h after the reperfusion, and the cerebral infarction area was determined. In the model group, an equal volume of PBS was injected through vena caudalis into the rat. In the sham group, only blood vessels were separated, no embolizing thread was inserted, and an equal volume of PBS was injected through vena caudalis into the rats. Neurologic deficit symptoms were evaluated employing an improved Bederson 5-point system method. Neurologic deficit symptoms of the rats after brain trauma were evaluated by a single-blind method, i.e., the animals were marked according to groups by designers of the experiment, and scores of the neurologic deficit symptoms were given by experimenters blind to the grouping situation. The cerebral infarction area was calculated employing the following method. Cerebrums of the SD rats were stained with TTC (2,3,5-triphenyltetrazolium chloride) and then the photographs were subjected to statistics using an image analysis software, and the percentage of cerebral infarction area was calculated according to the following formula: % cerebral infarction area=100×(total ischemic area/total area on the right side)

[2] = In vitro activity of PEG-KLK1 conjugates (BAEE degradation, absorbance change); type: biochemical; details: BAEE substrate, versus original unmodified protein
Description: N-benzoyl-L arginine ethyl ester hydrochloride (BAEE, purchased from sigma Inc.) may be degraded by Kallikrein, and the activity of kininogenase may be determined according to the change in the absorbance before and after the enzymatic reaction, see Pharmacopoeia of People's Republic of China, pages 850-851, Section 2, 2010 version for a particular determination method. Samples to be detected were, respectively, SC-PEG5000-KLK1 (conjugate 1), Y-PALD-20K-KLK1 (conjugate 2), Y-PALD-30K-KLK1 (conjugate 3), and Y-PALD-40K-KLK1 (conjugate 4) from Preparation Example 1, and the original unmodified protein.
The recombinant expressed low-molecular weight human kallikrein (hK1K1) from Example 10 was modified with a Y-PALD-30K modifier, and after the modification, a mono-modified product (Y-PALD-30K-hK1K1) was prepared according to the method described in Example 1. […] According to the experimental method in Example 2, the activity of human kallikrein (hK1K1) before and after the modification was determined.
The recombinant human kallikrein expressed in CHO cells prepared in Example 12 was modified with a Y-PALD-30K modifier, and after the modification, a mono-modified product (Y-PALD-30K-rhK1K1) was prepared according to the method described in Example 1. […] According to the experimental method in Example 2, the activity of human kallikrein before and after the modification was determined.

[3] = Thermostability: activity after standing in a water bath at 65° C.; type: physicochemical; details: for thermostability in comparison with the original protein: 65° C. water bath, 0-30 min
Description: In order to confirm whether the PEG modification can increase the stability of kallikrein, the activity of the conjugates 1 and 3 and the original protein after standing for a period of time in a water bath at 65° C. was detected respectively in this example. The method specifically included the following steps. The conjugates 1 and 3 and the unmodified kallikrein dissolved in a PBS buffer at a protein concentration of 1 mg/mL were stood in a water bath at 65° C., sampled at 0 min, 2.5 min, 5 min, 7.5 min, 10 min, 20 min, 25 min, and 30 min respectively, and stored in freezer at […] for later use. After sampling, the biological activity was detected by employing the method (i.e., the method described in appendix IX F in Pharmacopoeia of People's Republic of China, Section 3, 2005 version).

[4] = Pharmacokinetics by 125I isotope labelling tracer method; type: in vivo; details: rats, 1.5 U/kg via vena caudalis; for T½β: 2-compartment model
Description: The in vivo blood drug concentrations of kallikrein before and after the PEG modification were studied employing a ^125I isotope labelling tracer method in this example. In order to reduce the absorption of the labelled drug by the thyroid gland of rats, 1 ml of a 1% KI (Sinopharm Group) solution was intraperitoneally injected about 8 hours before the experiment, to saturate the thyroid gland of the rats. The rats were randomly divided into 3 groups, i.e., a conjugate 3 group, a kallikrein group, and a urinary kallikrein group, 8 in each group, half male and half female (purchased from Experimental Animal Center of Zhejiang Province).
A particular operation method is as follows:
1. Hydroxy on the amino acid residue phenyl ring in a protein molecule is substituted with radioiodine, to obtain the above protein with ^125I having a radioactive tracing effect.
2. Numbering is performed on the rats using picric acid according to the numbering rule, and weighing is performed. After fixing with a rat fixer, administration is performed by injection through vena caudalis (1.5 U/kg). The rat is let go immediately after the dosage, and allowed to move around, drink water, and eat food freely.
3. 0.2 mL of blood is taken from eye sockets 1 min, 3 min, 10 min, 20 min, 40 min, 60 min, 2 h, 4 h, 8 h, 12 h, 24 h, 48 h, 72 h, 96 h, and 120 h respectively after the dosage, and EDTA is added therein for anticoagulation.
4. The rat plasma is subjected to centrifugal separation at 5000 rpm for 3 min, and determined for plasma radioactivity using a gamma counter (Anke Zhongjia, GC-911), for 1 min.
5. Plasma is recovered after radioactivity determination, and undegraded proteinogenous drugs are separated by HPLC (Shimadzu LC-20AT).

[5] = system: db/db mice as animal models for diabetic nephropathy; test: Diabetic nephropathy model in db/db mice; type: in vivo; details: for 24-h urea nitrogen after administration, compared with the model group / 24-h urine creatinine after administration, compared with the model group / 24-h urine protein after administration, compared with the model group / 24-h urine volume after administration, compared with the model group: 2 μg/kg via vena caudalis, 2 months, original protein once a week, conjugate 3 once every 2 weeks
Description: db/db mice (purchased from Shanghai Slaccas Experimental Animal Co., LTD., grade SPF, 8-week aged, male, with a conformity certification No. of 2007000552656) were employed as animal models for diabetic nephropathy. A model group, a kallikrein (purchased from Changzhou Qianhong Biochemical Pharmaceutical Co., LTD.) original protein group and a conjugate 3 group were provided respectively. The administered dose was 2 μg/kg (calculated according to the protein amount), through vena caudalis, where the model group and the original protein group were dosed once a week, and the conjugate 3 group was dosed once every 2 weeks, for 2 continuous months before detection of urine volume, urine protein, urea nitrogen and urine creatinine. (Urine protein detection kits, urine creatinine detection kits, and urea nitrogen detection kits were all purchased from Nanjing Jiaticheng Bioengineering Co., LTD.)

[6] = system: anti-kallikrein antibody level in serum; parameters: species or system mice; details: mouse, in vivo, 1 mg/kg
Description: Relative immunogenicity of different PEG-KLK1 conjugates to mice was determined in this example, and compared with the original protein. The experiment was divided into a conjugate 2 group, a conjugate 3 group, a urinary kallikrein group and an original protein group. 1 mg/kg (calculated according to the protein amount) of the above protein was injected through vena caudalis into the mice at a frequency of twice a week, for 4 continuous weeks. Blood was taken from eye sockets 1 week after administration. The anti-kallikrein antibody level in serum was determined by […].

Row | Substance | amelioration of cerebral infarction status of the model animals (in words) [1] | Cerebral infarction area (%) [1] [%] | Score of neurologic deficit symptom [1] | activity retained, of the activity of the original protein [2] [%] | thermostability in comparison with the original protein [3] | AUC [4] [ng·h/mL] | CL [4] [mL/min/kg] | V [4] [L/kg] | T½β [4] [h] | 24-h urea nitrogen after administration, compared with the model group [5] | 24-h urine creatinine after administration, compared with the model group [5] | 24-h urine protein after administration, compared with the model group [5] | 24-h urine volume after administration, compared with the model group [5] | activity after standing for 10 min at 65° C. ([3]; 1 mg/mL in PBS, 65° C., 10 min) | antibody titers on mice compared with kallikrein from porcine pancreas and urinary kallikrein [6] | relative immunogenicity to mice compared with conjugate 2 [6] | efficacy compared with the original protein group ([5]; conjugate 3 once every 2 weeks versus original protein once a week) | activity after standing for 20 min at 65° C. ([3]; 1 mg/mL in PBS, 65° C., 20 min)
1 | SC-PEG5000-KLK1 [Conjugate 1, reference compound] | only partially ameliorated; also recorded: slightly ameliorate | 27.67 ± 4.34 | 2.45 ± 0.27 | 81 | unobvious |  |  |  |  |  |  |  |  |  |  |  |  | 
2 | Positive control 1: urinary kallikrein sourced from human urine, Guangdong Tianpu Biochemical Pharmaceutical [reference compound] |  | 24.49 ± 3.96 | 2.47 ± 0.21 |  |  | 11.68 | 3.5 | 5.16 | 17.49 |  |  |  |  |  |  |  |  | 
3 | Y-PALD-30K-hK1K1 |  |  |  | 85 |  |  |  |  |  |  |  |  |  |  |  |  |  | 
4 | Kallikrein | no apparent amelioration | 26.52 ± 3.67 | 2.41 ± 0.19 |  |  | 18.59 | 2.17 | 3.53 | 18.81 | significantly reduced | significantly reduced | significantly reduced | significantly reduced | substantially lost |  |  |  | 
5 | Y-PALD-40K-KLK1 [Conjugate 4] | essentially did not reduce; also recorded: no apparent amelioration | 31.27 ± 5.08 | 2.65 ± 0.34 | 86 |  |  |  |  |  |  |  |  |  |  |  |  |  | 
6 | Y-PALD-30K-rhK1K1 |  |  |  | 88 |  |  |  |  |  |  |  |  |  |  |  |  |  | 
7 | Y-PALD-30K-KLK1 [Conjugate 3] | apparent protective effects; also recorded: better therapeutic effect | 17.16 ± 4.07 | 2.10 ± 0.23 | 90 | significantly increased | 113.62 | 0.33 | 0.64 | 20.03 | significantly reduced | significantly reduced | significantly reduced | significantly reduced |  | much lower | slightly lower | apparently superior | still has a certain activity
8 | Y-PALD-20K-KLK1 [Conjugate 2] | apparent protective effects; also recorded: better therapeutic effect | 21.34 ± 1.70 | 2.27 ± 0.24 | 83 |  |  |  |  |  |  |  |  |  |  | much lower |  |  | 

— patent US10052368B2, “Pegylated tissue kallikrein, and preparation method therefor and uses thereof” (ZONHON BIOPHARMA INSTITUTE INC., priority 2013, dated 2018)
